Data from ChEMBL document CHEMBL5230122, “Natural products and other inhibitors of F1FO ATP synthase” (Eur J Med Chem, 2020).
Values after ≈ are worked out from the molar mass of the structure shown. Each block holds one compound with its values, some of them ahead of it. Numbered stars: 1 amine (or outer) side, 2 acyl side, 3 side chain; on linkers, the order of the positions; unused ones are H or OH. Square brackets hold non-standard residues; d marks the D form. Peptide text beside a SMILES is read from it. * marks the point of attachment. X2 = CCC(=O)C[C@H](O)C[C@@H](C)C[C@H](N[*:1])C(=O)[*:2]; Leu(3R-OH) = CC(C)[C@@H](O)[C@H](N)C(=O)O; NH((S)CH(Me)CH2NMe2) = C[C@@H](CN(C)C)N*; Pro(4S-Me) = C[C@@H]1CN[C@H](C(=O)O)C1; X1 = CC[C@@H](C)/C=C/C(=O)*; Aib = CC(C)(N)C(=O)O; βAla = NCCC(=O)O

Assays:
NCI-H460 = assay: Antiproliferative activity against human NCI-H460 cells assessed as reduction in cell viability incubated for 48 hrs by MTT assay; assay type: functional, cell-based; settings: NCI-H460, 48 h
N2a = assay: Antiproliferative activity against mouse Neuro2a cells assessed as reduction in cell viability incubated for 48 hrs by MTT assay; assay type: functional, cell-based
HL-60 = assay: Anticancer activity against human HL-60 cells assessed inhibition of cell proliferation incubated for 48 hrs by MTT assay; assay type: functional, cell-based; settings: HL-60, 48 h
[1] = Inhibition of mouse liver mitochondrial ATP synthase by microplate immuno-capture ELISA assay; assay type: mitochondria, Mitochondria
NCI-H292 [2] = assay: Anticancer activity against human NCI-H292 cells assessed as reduction in cell proliferation incubated for 48 hrs by Calcein AM and Pluronic F-127 staining based fluorescence plate reader analysis; assay type: functional; settings: NCI-H292, 48 h
[3] = Inhibition of mitochondrial F0F1-ATPase (unknown origin); parameters: species or system Homo sapiens
MCF7 = assay: Antitumor activity against human MCF7 cells assessed as reduction in cell viability incubated for 24 hrs by MTT assay; assay type: functional, cell-based; settings: MCF7, 24 h
K562 [4] = assay: Antiproliferative activity against human K562 cells assessed as reduction in cell viability incubated for 72 hrs by MTT assay; assay type: functional, cell-based; settings: K562, 72 h
HCT-116 [5] = assay: Antiproliferative activity against human HCT-116 cells assessed as reduction in cell viability incubated for 72 hrs by MTT assay; assay type: functional, cell-based; settings: HCT-116, 72 h
K562 [6] = assay: Antitumor activity against human K562 cells assessed as reduction in cell viability incubated for 72 hrs by MTT assay; assay type: functional, cell-based; settings: K562, 72 h
HCT-116 [7] = assay: Antitumor activity against human HCT-116 cells assessed as reduction in cell viability incubated for 72 hrs by MTT assay; assay type: functional, cell-based; settings: HCT-116, 72 h
[8] = Cytotoxicity against mouse L929 cells assessed as reduction in cell viability; assay type: toxicity, cell-based
NCI-H292 [9] = assay: Antiproliferative activity against human NCI-H292 cells assessed as reduction in cell viability by MTT assay; assay type: functional, cell-based
HeLa = assay: Antiproliferative activity against human HeLa cells assessed as reduction in cell viability by MTT assay; assay type: functional, cell-based
[10] = Inhibition of bovine heart mitochondrial F0F1-ATP synthase F0 domain assessed as reduction in rate of NADH oxidation for 30 mins by colorimetric assay; assay type: mitochondria, Bos taurus, Mitochondria
DU-145 [11] = assay: Antiproliferative activity against human DU-145 cells assessed as reduction in cell viability incubated for 3 days by rhodanile-blue dye based microplate reader analysis; assay type: functional; settings: DU-145, 72 h
DU-145 [12] = assay: Antiproliferative activity against human DU-145 cells assessed as reduction in cell viability preincubated with PrSCs cells for 2 days followed by co-culture with DU-145 for 3 days by rhodanile-blue dye based microplate reader analysis; assay type: functional
[13] = Acute toxicity in mouse assessed as maximum tolerated dose; settings: in vivo

Structure (SMILES): COC[C@@H](C[C@H]1O[C@@](O)([C@H](O)[C@@H]2C[C@H](OC)[C@@H](O)CC/C=C(C)/C=C/[C@@H](O[C@@H]3O[C@@H](C)[C@H](OC)[C@@H](O)[C@@H]3O)[C@H](C)/C=C(C)/C=C(C)/C=C(\C)C(=O)O2)[C@H](C)[C@@H](O)[C@H]1C)O[C@H]1C[C@](C)(O)[C@@H](O[C@H]2C[C@@H](OC)[C@H](O)[C@@H](C)O2)[C@H](C)O1
- IC50 (NCI-H292 [2]): 32 nM
- IC50 [3]: 700 nM

Structure (SMILES): CC[C@H]1/C=C/C=C/C[C@@H](C)[C@H](O)[C@@](C)(O)C(=O)[C@@H](C)[C@H](O)[C@@H](C)C(=O)[C@@H](C)[C@H](O)[C@@H](C)/C=C/C(=O)O[C@@H]2[C@H](C)[C@H](CC1)O[C@]1(CC[C@H](C)[C@H](C[C@@H](C)O)O1)[C@H]2C [OLIGOMYCIN]
- IC50 (K562 [4]): 200 nM
- IC50 (HCT-116 [5]): 900 nM
- IC50 (K562 [6]): 200 nM
- IC50 (HCT-116 [7]): 1000 nM

Structure (SMILES): CCC[C@H](O)[C@@H](C)C(=O)NC/C=C\C[C@@H](C)[C@@H](O)[C@H](C)[C@@H](O)C/C=C\C[C@H](C)[C@H]1Cc2cc(OC)cc(O)c2C(=O)O1
- IC50 [8]: > 1 µg/mL

Structure (SMILES): Ic1ccc(-c2c3ccc(=[N+]4CCCCC4)cc-3oc3cc(N4CCCCC4)ccc23)cc1
- IC50 (HL-60): 100 nM
- IC50 [1]: 3900 nM

Structure (SMILES): CCC(=O)C[C@H](O)C[C@@H](C)C[C@H](NC(=O)[C@@H]1C[C@H](C)CN1C(=O)/C=C/[C@H](C)CC)C(=O)N[C@H](C(=O)NC(C)(C)C(=O)N[C@@H](CC(C)C)C(=O)N[C@@H](CC(C)C)C(=O)NC(C)(C)C(=O)NC(C)(C)C(=O)NCCC(=O)N[C@@H](C)CN(C)C)[C@H](O)C(C)C (X1-[Pro(4S-Me)][X2][Leu(3R-OH)][Aib]LL[Aib][Aib][βAla]-{NH((S)CH(Me)CH2NMe2)})
- IC50 [10]: 2.8 µg/mL (≈ 2.3 µM)
- IC50 (DU-145 [11]): > 1 µg/mL
- IC50 (DU-145 [12]): 0.045 µg/mL (≈ 0.0369 µM)
- MTD [13]: 2.5 mg/kg

More lines, main results first:

- IC50 (NCI-H460): 12 nM
Structure (SMILES): CO[C@H]1[C@H](O[C@@H]2C[C@@H]3C/C=C/C(=O)O[C@H](CO)C[C@H](O)[C@@H]4C[C@H](C)[C@H](/C=C\C=C\[C@H](C)C[C@H](C2)O3)O4)O[C@@H](C)[C@H](O)[C@H]1O
- IC50 (N2a): 44 nM

- IC50 (HL-60): 100 nM
- IC50 [1]: 3000 nM
Structure (SMILES): c1csc(-c2c3ccc(=[N+]4CCCCC4)cc-3oc3cc(N4CCCCC4)ccc23)c1

- IC50 (MCF7): 42700 nM
Structure (SMILES): O=C(Oc1cc(/C=C/c2ccc(O)cc2)cc(OC(=O)c2ccco2)c1)c1ccco1

- IC50 (NCI-H292 [9]): 91 nM
- IC50 (HeLa): 240 nM
Structure (SMILES): COC[C@@H](C[C@H]1O[C@@](O)([C@H](O)[C@@H]2C[C@H](OC)[C@@H](O)CC/C=C(C)/C=C/[C@@H](O[C@@H]3O[C@@H](C)[C@H](OC)[C@@H](O)[C@@H]3OC(=O)CCC(=O)O)[C@H](C)/C=C(C)/C=C(C)/C=C(\C)C(=O)O2)[C@H](C)[C@@H](O)[C@H]1C)O[C@H]1C[C@](C)(O)[C@@H](O[C@H]2C[C@@H](OC)[C@H](O)[C@@H](C)O2)[C@H](C)O1

- IC50 (MCF7): 80000 nM
Structure (SMILES): Oc1ccc(/C=C/c2cc(O)cc(O)c2)cc1 [RESVERATROL]
